Experiments:
windgrass = assay: Test D preemergence; format: in vivo, Apera spica-venti; settings: scale 0 to 100
Text: (§1) Seeds of plant species selected from bluegrass (annual bluegrass, Poa annua), blackgrass (Alopecurus myosuroides), canarygrass (littleseed canarygrass, Phalaris minor), chickweed (common chickweed, Stellaria media), galium (catchweed bedstraw, Galium aparine), bromegrass, downy (downy bromegrass, Bromus tectorum), field poppy (Papaver rhoeas), field violet (Viola arvensis), foxtail, green (green foxtail, Setaria viridis), deadnettle (henbit deadnettle, Lamium amplexicaule), ryegrass, Italian (Italian ryegrass, Lolium multiflorum), kochia (Kochia scoparia), lambsquarters (Chenopodium album), oilseed rape (Brassica napus), pigweed (redroot pigweed, Amaranthus retroflexus), chamomile (scentless chamomile, Matricaria inodora), speedwell (bird's-eye speedwell, Veronica persica), barley, spring (spring barley, Hordeum vulgare), wheat, spring (spring wheat, Triticum aestivum), buckwheat, wild (wild buckwheat, Polygonum convolvulus), mustard, wild (wild mustard, Sinapis arvensis), oat, wild (wild oat, Avena fatua), radish, wild (wild radish, Raphanus raphanistrum), windgrass (Apera spica-venti), Russian thistle (Salsola kali), barley, winter (winter barley, Hordeum vulgare), and wheat, winter (winter wheat, Triticum aestivum) were planted into a silt loam soil and treated preemergence with test chemicals formulated in a non-phytotoxic solvent mixture which included a surfactant.
(§2) At the same time, these species were planted in pots containing Redi-Earth® planting medium (Scotts Company, 14111 Scottslawn Road, Marysville, Ohio 43041) comprising spaghnum peat moss, vermiculite, wetting agent and starter nutrients and treated with postemergence applications of the test chemicals formulated in the same manner. Plants ranged in height from 2 to 18 cm (1- to 4-leaf stage). Treated plants and controls were maintained in a controlled growth environment for 14 to 21 days after which time all species were compared to controls and visually evaluated. Plant response ratings, summarized in Table D, are based on a scale of 0 to 100 where 0 is no effect and 100 is complete control. A dash (-) response means no test result.

soybean = assay: Test F preemergence; format: in vivo, Glycine max
Procedure, shortened: (§3)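 Percent-control style visual scores, from 0 (no effect) to 100 (complete control), were given relative to controls. Treatment timing: preemergence on silt loam plantings, or postemergence at 1- to 4-leaf stage. Evaluation came 14 to 21 days after spraying, greenhouse conditions.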

buckwheat, wild = assay: Test D postemergence; format: in vivo, Polygonum convolvulus; settings: scale 0 to 100
Procedure, shortened: (§4)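 Preemergence: seeds sown in silt loam soil and sprayed with test chemical in non-phytotoxic solvent mixture with surfactant. Postemergence: plants grown in peat/vermiculite medium, sprayed at 2–18 cm (1- to 4-leaf stage). Visual rating versus untreated controls after 14–21 days, 0 (no effect) to 100 (complete control).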

pigweed, palmer = assay: Test F preemergence; format: in vivo, Amaranthus palmeri
Text: (§5) Seeds of plant species selected from corn (Zea mays), soybean (Glycine max), velvetleaf (Abutilon theophrasti), lambsquarters (Chenopodium album), wild poinsettia (Euphorbia heterophylla), pigweed, palmer (palmer pigweed, Amaranthus palmeri), common waterhemp (Amaranthus rudis), surinam grass (Brachiaria decumbens), large crabgrass (Digitaria sanguinalis), crabgrass, Brazil (Brazilian crabgrass, Digitaria horizontalis), fall panicum (Panicum dichotomiflorum), giant foxtail (Setaria faberii), green foxtail (Setaria viridis), goosegrass (Eleusine indica), johnsongrass (Sorghum halepense), common ragweed (Ambrosia elation), barnyardgrass (Echinochloa crus-galli), southern sandbur (Cenchrus echinatus), arrowleaf sida (Sida rhombifolia), Italian ryegrass (Lolium multiflorum), dayflower, VA (Virginia (VA) dayflower, Commelina virginica), field bindweed (Convolvulus arvensis), cocklebur (common cocklebur, Xanthium strumarium), morningglory (Ipomoea coccinea), nightshade (eastern black nightshade, Solanum ptycanthum), kochia (Kochia scoparia), yellow nutsedge (Cyperus esculentus), and hairy beggarticks (Bidens pilosa), were planted into a silt loam soil and treated preemergence with test chemicals formulated in a non-phytotoxic solvent mixture which included a surfactant.
(§6) At the same time, plants from these crop and weed species and also horseweed (Canada horseweed, Conyza canadensis), smartweed (ladysthumb smartweed, Polygonum persicaria), waterhemp_RES1, (ALS & Triazine resistant common waterhemp, Amaranthus rudis), and waterhemp_RES2, (ALS & HPPD resistant common waterhemp, Amaranthus rudis) were treated with postemergence applications of test chemicals formulated in the same manner. Plants ranged in height from 2 to 18 cm for postemergence treatments (1- to 4-leaf stage). Treated plants and controls were maintained in a greenhouse for 14 to 21 days, after which time all species were compared to controls and visually evaluated. Plant response ratings, summarized in Table F, are based on a scale of 0 to 100 where 0 is no effect and 100 is complete control. A dash (-) response means no test result.

galium = assay: Test D postemergence; format: in vivo, Galium aparine; settings: scale 0 to 100
Text: as §1, §2

kochia [1] = assay: Test F preemergence; format: in vivo, Kochia scoparia
Procedure, shortened: as §3

bromegrass, downy = assay: Test D preemergence; format: in vivo, Bromus tectorum; settings: scale 0 to 100
Text: as §1, §2

southern sandbur = assay: Test F preemergence; format: in vivo, Cenchrus echinatus
Procedure, shortened: as §3

pigweed = assay: Test D postemergence; format: in vivo, Amaranthus retroflexus; settings: scale 0 to 100
Text: as §1, §2

oilseed rape = assay: Test D postemergence; format: in vivo, Brassica napus; settings: scale 0 to 100
Procedure, shortened: as §4

common ragweed = assay: Test F preemergence; format: in vivo, Ambrosia elation
Text: as §5, §6

barley, spring = assay: Test D postemergence; format: in vivo, Hordeum vulgare; settings: scale 0 to 100
Text: as §1, §2

barley, winter = assay: Test D postemergence; format: in vivo, Hordeum vulgare; settings: scale 0 to 100
Text: as §1, §2

kochia [2] = assay: Test D postemergence; format: in vivo, Kochia scoparia; settings: scale 0 to 100
Text: as §1, §2

[3] = Preemergence, 31 g ai/ha, scale 0 to 100
[4] = Preemergence, 62 g ai/ha, scale 0 to 100
[5] = Preemergence, 125 g ai/ha, scale 0 to 100
[6] = preemergence, 8 g ai/ha, scale 0 to 100, 100 is complete control
[7] = preemergence, 16 g ai/ha, scale 0 to 100, 100 is complete control

## CCc1cc(C(=O)NCC(F)(F)F)nn1Cc1ccnc(C(F)(F)F)c1 [Compound 78, 5-ethyl-N-(2,2,2-trifluoroethyl)-1-[[(2-trifluoromethyl)-4-pyridinyl]methyl]-1H-pyrazole-3-carboxamide]
windgrass; 31 g ai/ha
  Plant response rating, Windgrass: 90
windgrass; 62 g ai/ha
  Plant response rating, Windgrass: 100
windgrass; 125 g ai/ha
  Plant response rating, Windgrass: 100
windgrass; 250 g ai/ha
  Plant response rating, Windgrass: 100
soybean; [3]
  Plant response rating, Soybean: 95
soybean; [4]
  Plant response rating, Soybean: 80
soybean; [5]
  Plant response rating, Soybean: 95
soybean; [6]
  Plant response rating, Soybean: 0
soybean; [7]
  Plant response rating, Soybean: 0
buckwheat, wild; Postemergence, 31 g ai/ha
  Buckwheat, Wild plant response rating: 50
buckwheat, wild; Postemergence, 125 g ai/ha
  Buckwheat, Wild plant response rating: 65
buckwheat, wild; Postemergence, 250 g ai/ha
  Buckwheat, Wild plant response rating: 70
buckwheat, wild; postemergence, 62 g ai/ha
  Buckwheat, Wild plant response rating: 60
pigweed, palmer; [3]
  Plant response rating, Pigweed, Palmer: 35
pigweed, palmer; [4]
  Plant response rating, Pigweed, Palmer: 100
pigweed, palmer; [5]
  Plant response rating, Pigweed, Palmer: 100
pigweed, palmer; [6]
  Plant response rating, Pigweed, Palmer: 20
pigweed, palmer; [7]
  Plant response rating, Pigweed, Palmer: 40
galium; Postemergence, 31 g ai/ha
  Galium plant response rating: 60
galium; Postemergence, 125 g ai/ha
  Galium plant response rating: 80
galium; Postemergence, 250 g ai/ha
  Galium plant response rating: 85
galium; postemergence, 62 g ai/ha
  Galium plant response rating: 70
Kochia [1]; [3]
  Plant response rating, Kochia: 100
Kochia [1]; [4]
  Plant response rating, Kochia: 100
Kochia [1]; [5]
  Plant response rating, Kochia: 100
Kochia [1]; [6]
  Plant response rating, Kochia: 40
Kochia [1]; [7]
  Plant response rating, Kochia: 65
bromegrass, downy; 31 g ai/ha
  Plant response rating, Bromegrass, Downy: 10
bromegrass, downy; 62 g ai/ha
  Plant response rating, Bromegrass, Downy: 20
bromegrass, downy; 125 g ai/ha
  Plant response rating, Bromegrass, Downy: 70
bromegrass, downy; 250 g ai/ha
  Plant response rating, Bromegrass, Downy: 75
Southern sandbur; [3]
  Plant response rating, Southern Sandbur: 5
Southern sandbur; [4]
  Plant response rating, Southern Sandbur: 80
Southern sandbur; [5]
  Plant response rating, Southern Sandbur: 95
Southern sandbur; [6]
  Plant response rating, Southern Sandbur: 0
Southern sandbur; [7]
  Plant response rating, Southern Sandbur: 0
pigweed; Postemergence, 31 g ai/ha
  Pigweed plant response rating: 70
pigweed; Postemergence, 125 g ai/ha
  Pigweed plant response rating: 80
pigweed; Postemergence, 250 g ai/ha
  Pigweed plant response rating: 85
pigweed; postemergence, 62 g ai/ha
  Pigweed plant response rating: 75
Oilseed rape; Postemergence, 31 g ai/ha
  Oilseed Rape plant response rating: 35
Oilseed rape; Postemergence, 125 g ai/ha
  Oilseed Rape plant response rating: 60
Oilseed rape; Postemergence, 250 g ai/ha
  Oilseed Rape plant response rating: 80
Oilseed rape; postemergence, 62 g ai/ha
  Oilseed Rape plant response rating: 50
Common ragweed; [3]
  Plant response rating, Common Ragweed: 90
Common ragweed; [4]
  Plant response rating, Common Ragweed: 98
Common ragweed; [5]
  Plant response rating, Common Ragweed: 100
Common ragweed; [6]
  Plant response rating, Common Ragweed: 0
Common ragweed; [7]
  Plant response rating, Common Ragweed: 30
barley, spring; Postemergence, 31 g ai/ha
  Barley, Spring plant response rating: 0
barley, spring; Postemergence, 125 g ai/ha
  Barley, Spring plant response rating: 10
barley, spring; Postemergence, 250 g ai/ha
  Barley, Spring plant response rating: 30
barley, spring; postemergence, 62 g ai/ha
  Barley, Spring plant response rating: 0
barley, winter; Postemergence, 31 g ai/ha
  Barley, Winter plant response rating: 5
barley, winter; Postemergence, 125 g ai/ha
  Barley, Winter plant response rating: 15
barley, winter; Postemergence, 250 g ai/ha
  Barley, Winter plant response rating: 25
barley, winter; postemergence, 62 g ai/ha
  Barley, Winter plant response rating: 10
Kochia [2]; Postemergence, 31 g ai/ha
  Kochia plant response rating: 75
Kochia [2]; Postemergence, 125 g ai/ha
  Kochia plant response rating: 80
Kochia [2]; Postemergence, 250 g ai/ha
  Kochia plant response rating: 75
Kochia [2]; postemergence, 62 g ai/ha
  Kochia plant response rating: 80

## CCCc1cc(C(=O)NCC(F)(F)F)nn1Cc1ccnc(C(F)(F)F)c1 [Compound 105]
windgrass; 31 g ai/ha
  Plant response rating, Windgrass: 75
windgrass; 62 g ai/ha
  Plant response rating, Windgrass: 100
windgrass; 125 g ai/ha
  Plant response rating, Windgrass: 100
windgrass; 250 g ai/ha
  Plant response rating, Windgrass: 100
soybean; [3]
  Plant response rating, Soybean: 100
soybean; [4]
  Plant response rating, Soybean: 80
soybean; [5]
  Plant response rating, Soybean: 100
soybean; [6]
  Plant response rating, Soybean: 0
soybean; [7]
  Plant response rating, Soybean: 0
buckwheat, wild; Postemergence, 31 g ai/ha
  Buckwheat, Wild plant response rating: 55
buckwheat, wild; Postemergence, 125 g ai/ha
  Buckwheat, Wild plant response rating: 70
buckwheat, wild; Postemergence, 250 g ai/ha
  Buckwheat, Wild plant response rating: 80
buckwheat, wild; postemergence, 62 g ai/ha
  Buckwheat, Wild plant response rating: 65
pigweed, palmer; [4]
  Plant response rating, Pigweed, Palmer: 50
pigweed, palmer; [5]
  Plant response rating, Pigweed, Palmer: 80
pigweed, palmer; [6]
  Plant response rating, Pigweed, Palmer: 0
pigweed, palmer; [7]
  Plant response rating, Pigweed, Palmer: 0
galium; Postemergence, 31 g ai/ha
  Galium plant response rating: 70
galium; Postemergence, 125 g ai/ha
  Galium plant response rating: 80
galium; Postemergence, 250 g ai/ha
  Galium plant response rating: 85
galium; postemergence, 62 g ai/ha
  Galium plant response rating: 75
Kochia [1]; [3]
  Plant response rating, Kochia: 100
Kochia [1]; [4]
  Plant response rating, Kochia: 100
Kochia [1]; [5]
  Plant response rating, Kochia: 100
Kochia [1]; [6]
  Plant response rating, Kochia: 0
Kochia [1]; [7]
  Plant response rating, Kochia: 80
bromegrass, downy; 31 g ai/ha
  Plant response rating, Bromegrass, Downy: 5
bromegrass, downy; 62 g ai/ha
  Plant response rating, Bromegrass, Downy: 15
bromegrass, downy; 125 g ai/ha
  Plant response rating, Bromegrass, Downy: 55
bromegrass, downy; 250 g ai/ha
  Plant response rating, Bromegrass, Downy: 95
Southern sandbur; [3]
  Plant response rating, Southern Sandbur: 10
Southern sandbur; [4]
  Plant response rating, Southern Sandbur: 75
Southern sandbur; [5]
  Plant response rating, Southern Sandbur: 95
Southern sandbur; [6]
  Plant response rating, Southern Sandbur: 0
Southern sandbur; [7]
  Plant response rating, Southern Sandbur: 0
pigweed; Postemergence, 31 g ai/ha
  Pigweed plant response rating: 85
pigweed; Postemergence, 125 g ai/ha
  Pigweed plant response rating: 80
pigweed; Postemergence, 250 g ai/ha
  Pigweed plant response rating: 85
pigweed; postemergence, 62 g ai/ha
  Pigweed plant response rating: 75
Oilseed rape; Postemergence, 31 g ai/ha
  Oilseed Rape plant response rating: 40
Oilseed rape; Postemergence, 125 g ai/ha
  Oilseed Rape plant response rating: 70
Oilseed rape; Postemergence, 250 g ai/ha
  Oilseed Rape plant response rating: 85
Oilseed rape; postemergence, 62 g ai/ha
  Oilseed Rape plant response rating: 60
Common ragweed; [4]
  Plant response rating, Common Ragweed: 35
Common ragweed; [5]
  Plant response rating, Common Ragweed: 100
Common ragweed; [6]
  Plant response rating, Common Ragweed: 0
Common ragweed; [7]
  Plant response rating, Common Ragweed: 0
barley, spring; Postemergence, 31 g ai/ha
  Barley, Spring plant response rating: 10
barley, spring; Postemergence, 125 g ai/ha
  Barley, Spring plant response rating: 30
barley, spring; Postemergence, 250 g ai/ha
  Barley, Spring plant response rating: 45
barley, spring; postemergence, 62 g ai/ha
  Barley, Spring plant response rating: 10
barley, winter; Postemergence, 31 g ai/ha
  Barley, Winter plant response rating: 10
barley, winter; Postemergence, 125 g ai/ha
  Barley, Winter plant response rating: 20
barley, winter; Postemergence, 250 g ai/ha
  Barley, Winter plant response rating: 30
barley, winter; postemergence, 62 g ai/ha
  Barley, Winter plant response rating: 10
Kochia [2]; Postemergence, 31 g ai/ha
  Kochia plant response rating: 75
Kochia [2]; Postemergence, 125 g ai/ha
  Kochia plant response rating: 80
Kochia [2]; Postemergence, 250 g ai/ha
  Kochia plant response rating: 80
Kochia [2]; postemergence, 62 g ai/ha
  Kochia plant response rating: 75
